Tested on: GFP-RFP-LC3-II puncta in SH-SY5Y cells
Experiment: Tandem fluorescent protein quenching assay (RFP-GFP-LC3)
Format: cell-based, human
Details: transfected SH-SY5Y cells, AKNS-2 10 μM alone vs control cells
Experimental: SH-SY5Y cells were cultured in a 24-well plate at a density of 8×10^4 cells/well on a glass cover slip. Transfection was performed in accordance with guidelines of the autophagy tandem RFP-GFP-LC3B kit. After culturing the cells for 24 hours, the cells were treated with an LC3B reagent. After the transfected cells were incubated for 24 hours, 50 nM Wart or 100 nM Baf was administered thereto, and then AKNS-2 (10 μM) was added thereto. The cells were immobilized with 4% paraformaldehyde and permeabilized with 0.1% Triton X100. Nuclei thereof were stained with 4,6-diamidino-2-phenylindole (DAPI, 25 μg/mL). Fluorescent signals were detected using a confocal microscope (Leica, Solms, Germany).

## C[C@@H]1O[C@@H](O[C@@H]2[C@@H](O)[C@H](O[C@@H]3[C@@H](O[C@@H]4OC[C@@H](O)[C@H](O)[C@H]4O)[C@@H](O)[C@H](O[C@H]4[C@H](OC(=O)[C@]56CCC(C)(C)C[C@H]5C5=CC[C@@H]7[C@@]8(C)C[C@H](O)[C@H](O[C@@H]9O[C@H](CO)[C@@H](O)[C@H](O[C@@H]%10OC[C@@H](O)[C@H](O)[C@H]%10O)[C@H]9O)[C@@](C)(CO)[C@@H]8CC[C@@]7(C)[C@]5(C)C[C@H]6O)OC[C@H](O)[C@@H]4O)O[C@H]3C)OC[C@H]2O)[C@H](O)[C@H](O)[C@H]1O [Compound 1, 3-O-β-D-xylopyranosyl-(1→3)-β-D-glucopyranosylpolygalacic acid 28-O-α-L-rhamnopyranosyl-(1→3)-β-D-xylopyranosyl-(1→4)-[β-D-xylopyranosyl-(1→3)]-α-L-rhamnopyranosyl-(1→2)-α-L-arabinopyranosyl ester]
  accumulation of GFP-RFP-LC3-II puncta: more cytoplasmic puncta stained with green and red fluorescence were observed compared to in the control cells
